Assay results from patent US10155781B2, “Co-crystals, salts and solid forms of tenofovir alafenamide” (Gilead Sciences, Inc., priority 2015, dated 2018).
Counter-ions that a name gives are not always drawn. Like-named read-outs stand apart in the source and are kept apart here.

Details: solid material, compared by XRPD
Source text: Two XRPD systems were used for the characterization of the samples.
(1) Bruker AXS C2 GADDS diffractometer uses Cu Kalpha radiation (40 kV, 40 mA), automated XYZ stage, laser video microscope for auto-sample positioning and a HiStar 2-dimensional area detector. X-ray optics consists of a single Göbel multilayer mirror coupled with a pinhole collimator of 0.3 mm. The beam divergence, i.e. the effective size of the X-ray beam on the sample, was approximately 4 mm. A θ-θ continuous scan mode was employed with a sample-detector distance of 20 cm which gives an effective 20 range of 3.2°-29.7°. Typically the sample was exposed to the X-ray beam for 120 seconds. The software used for data collection was GADDS for XP/2000 4.1.36 and the data was analyzed and presented using Diffrac Plus EVA v13.0.0.2 or v15.0.0.0.
Samples run under ambient conditions were prepared as flat plate specimens using powder as received without grinding. Approximately 1-2 mg of the sample was lightly pressed on a glass slide to obtain a flat surface.
(2) Bruker D8 diffractometer uses Cu Ka radiation (40 kV, 40 mA), θ-2θ goniometer, and divergence of V4 and receiving slits, a Ge monochromator and a Lynxeye detector. The software used for data collection was Diffrac Plus XRD Commander v2.6.1 and the data was analyzed and presented using Diffrac Plus EVA v13.0.0.2 or v15.0.0.0.
Samples were run under ambient conditions as flat plate specimens using powder as received. The sample was gently packed into a cavity cut into polished, zero-background (510) silicon wafer. The sample was rotated in its own plane during analysis. The details of the data collection was: Angular range: 2 to 42° 2θ; Step size: 0.05° 2θ; Collection time: 0.5 s/step
(3) PANanalytical XPERT-PRO diffractometer at ambient conditions under the following experimental settings: 45 KV, 40 mA, Kα1=1.5406 Å, scan range 2 to 40°, step size 0.0084 or 0.0167°, measurement time: 5 min.

Structure (SMILES)	XRPD pattern after storage at 40° C. 75% RH for 14 days (solid form stability)	XRPD pattern after storage at 40° C. 75% RH for 14 days (solid form stability) (Hydrochloride)
CC(C)OC(=O)[C@H](C)N[P@](=O)(CO[C@H](C)Cn1cnc2c(N)ncnc21)Oc1ccccc1 [Tenofovir alafenamide methanesulfonate pattern 1]	changed to another form	–
CC(C)OC(=O)[C@H](C)N[P@](=O)(CO[C@H](C)Cn1cnc2c(N)ncnc21)Oc1ccccc1 [tenofovir alafenamide L-malate, Tenofovir Alafenamide L-Malate]	no change	–
CC(C)OC(=O)[C@H](C)N[P@](=O)(CO[C@H](C)Cn1cnc2c(N)ncnc21)Oc1ccccc1 [tenofovir alafenamide benzenesulfonate, Tenofovir Alafenamide Benzenesulfonate]	no change	–
CC(C)OC(=O)[C@H](C)N[P@](=O)(CO[C@H](C)Cn1cnc2c(N)ncnc21)Oc1ccccc1 [tenofovir alafenamide ethanesulfonate, Tenofovir Alafenamide Ethanesulfonate]	no XRPD change	–
CC(C)OC(=O)[C@H](C)N[P@](=O)(CO[C@H](C)Cn1cnc2c(N)ncnc21)Oc1ccccc1 [tenofovir alafenamide hydrochloride, Tenofovir Alafenamide Hydrochloride]	–	remained unchanged
CC(C)OC(=O)[C@H](C)N[P@](=O)(CO[C@H](C)Cn1cnc2c(N)ncnc21)Oc1ccccc1 [tenofovir alafenamide mucate pattern 1, Tenofovir Alafenamide Mucate]	no change	–
CC(C)OC(=O)[C@H](C)N[P@](=O)(CO[C@H](C)Cn1cnc2c(N)ncnc21)Oc1ccccc1 [tenofovir alafenamide mucate pattern 2, Tenofovir Alafenamide Mucate]	no change	–
CC(C)OC(=O)[C@H](C)N[P@](=O)(CO[C@H](C)Cn1cnc2c(N)ncnc21)Oc1ccccc1 [tenofovir alafenamide oxalate, Tenofovir Alafenamide Oxalate]	no change in XRPD	–
CC(C)OC(=O)[C@H](C)N[P@](=O)(CO[C@H](C)Cn1cnc2c(N)ncnc21)Oc1ccccc1 [tenofovir alafenamide saccharin, Tenofovir Alafenamide Saccharin]	same XRPD pattern was obtained	–
